# Test results as given in patent US20230124862A1, “BISMUTH THIOL COMPOUNDS AND COMPOSITIONS AND METHODS OF TREATING MICROBIAL CO-INFECTIONS” (Microbion Corporation, priority 2020, published 2023).
# Where “and” joins values, the source holds several entries; their conditions need not be identical. Equal entries are not always repeated. Where two headings read alike, the source gives them in different places.
# Key:
# Haemophilus influenzae [1] = details: H. influenzae MMX 1224 (ATCC 49247); in µg/mL; cited from earlier work
# Haemophilus influenzae [2] = experiment: Broth microdilution MIC, Haemophilus influenzae clinical isolates; type: cell-based
# B. cepacia = experiment: MIC testing of CF isolates; type: cell-based, Burkholderia cepacia; details: Burkholderia cepacia; strain BC17; read-out: MIC
# E. coli ATCC 25922 = details: control strain ATCC 25922; cited from earlier work
# B. multivorans = experiment: MIC testing of CF isolates; type: cell-based, Burkholderia multivorans; details: Burkholderia multivorans; strain BC5b; read-out: MIC
# B. cenocepacia = experiment: MIC testing of CF isolates; type: cell-based, Burkholderia cenocepacia
# S. maltophilia = experiment: MIC testing of CF isolates; type: cell-based, Stenotrophomonas maltophilia; details: strain SM21
# [3] = system: Burkholderia cepacia complex; experiment: Checkerboard FIC/FICI assay; type: cell-based, Burkholderia spp.; details: for MICB: MIC of Amikacin (Drug B) in combination with BisEDT
# Achromobacter spp. = experiment: MIC testing of CF isolates; type: cell-based; details: strain AX4, A. xylosoxidans; read-out: MIC
# S. aureus ATCC 29213 = details: control strain ATCC 29213; cited from earlier work
# P. aeruginosa = experiment: Checkerboard FIC/FICI assay; type: cell-based, Pseudomonas aeruginosa; details: for FICB / MICB: Amikacin in combination with BisEDT
# [4] = H. influenzae MMX 1224 (ATCC 49247)
# [5] = P. aeruginosa 6322, one value per panel row D-G
# [6] = P. aeruginosa 6977, by checkerboard
# [7] = P. aeruginosa 7745, by checkerboard
smiles,measurement,setting,value
CC1(C)S[C@@H]2[C@H](NC(=O)[C@H](N)c3ccccc3)C(=O)N2[C@H]1C(=O)O [AMP],CLSI Quality Control Range (MIC),Haemophilus influenzae [1],2-8
same,MIC,"Haemophilus influenzae [2]; H. influenzae MMX 0797, BLNAR",4 µg/mL
same,MIC,Haemophilus influenzae [2]; [4],2 µg/mL
same,MIC,Haemophilus influenzae [2]; H. influenzae MMX 1302,0.25 µg/mL
same,MIC,Haemophilus influenzae [2]; H. influenzae MMX 1304,0.25 µg/mL
same,MIC,Haemophilus influenzae [2]; H. influenzae MMX 1740,4 µg/mL
same,MIC,Haemophilus influenzae [2]; H. influenzae MMX 1741,4 µg/mL
same,MIC,"Haemophilus influenzae [2]; H. influenzae MMX 2795, BLNAR",4 µg/mL
same,MIC,"Haemophilus influenzae [2]; H. influenzae MMX 2796, BLNAR",2 µg/mL
same,MIC,"Haemophilus influenzae [2]; H. influenzae MMX 2798, BLNAR",4 µg/mL
same,MIC,"Haemophilus influenzae [2]; H. influenzae MMX 2799, BLNAR",4 µg/mL
same,MIC,Haemophilus influenzae [2]; H. influenzae MMX 5458,0.12 µg/mL
same,MIC,Haemophilus influenzae [2]; H. influenzae MMX 5461,0.5 µg/mL
same,MIC,Haemophilus influenzae [2]; H. influenzae MMX 5469,4 µg/mL
same,MIC,Haemophilus influenzae [2]; H. influenzae MMX 5494,0.12 µg/mL
same,MIC,Haemophilus influenzae [2]; H. influenzae MMX 5495,0.25 µg/mL
same,MIC,Haemophilus influenzae [2]; H. influenzae MMX 5499,0.25 µg/mL
CC[C@H]1OC(=O)[C@H](C)[C@@H](O[C@H]2C[C@@](C)(OC)[C@@H](O)[C@H](C)O2)[C@H](C)[C@@H](O[C@@H]2O[C@H](C)C[C@H](N(C)C)[C@H]2O)[C@](C)(O)C[C@@H](C)CN(C)[C@H](C)[C@@H](O)[C@]1(C)O [AZM],CLSI Quality Control Range (MIC),Haemophilus influenzae [1],1-4
same,MIC,"Haemophilus influenzae [2]; H. influenzae MMX 0797, BLNAR",2 µg/mL
same,MIC,Haemophilus influenzae [2]; [4],2 µg/mL
same,MIC,Haemophilus influenzae [2]; H. influenzae MMX 1302,2 µg/mL
same,MIC,Haemophilus influenzae [2]; H. influenzae MMX 1304,2 µg/mL
same,MIC,Haemophilus influenzae [2]; H. influenzae MMX 1740,4 µg/mL
same,MIC,Haemophilus influenzae [2]; H. influenzae MMX 1741,1 µg/mL
same,MIC,"Haemophilus influenzae [2]; H. influenzae MMX 2795, BLNAR",2 µg/mL
same,MIC,"Haemophilus influenzae [2]; H. influenzae MMX 2796, BLNAR",2 µg/mL
same,MIC,"Haemophilus influenzae [2]; H. influenzae MMX 2798, BLNAR",0.5 µg/mL
same,MIC,"Haemophilus influenzae [2]; H. influenzae MMX 2799, BLNAR",0.5 µg/mL
same,MIC,Haemophilus influenzae [2]; H. influenzae MMX 5458,1 µg/mL
same,MIC,Haemophilus influenzae [2]; H. influenzae MMX 5461,2 µg/mL
same,MIC,Haemophilus influenzae [2]; H. influenzae MMX 5469,2 µg/mL
same,MIC,Haemophilus influenzae [2]; H. influenzae MMX 5494,1 µg/mL
same,MIC,Haemophilus influenzae [2]; H. influenzae MMX 5495,0.5 µg/mL
same,MIC,Haemophilus influenzae [2]; H. influenzae MMX 5499,2 µg/mL
"NCC[C@H](O)C(=O)N[C@@H]1C[C@H](N)[C@@H](O[C@H]2O[C@H](CN)[C@@H](O)[C@H](O)[C@H]2O)[C@H](O)[C@H]1O[C@H]1O[C@H](CO)[C@@H](O)[C@H](N)[C@H]1O [Amikacin, reference compound]",MIC,B. cepacia,> 64 µg/mL
same,Expected MIC: goal (acceptable range),E. coli ATCC 25922,1 to 2 µg/mL
same,MIC,B. multivorans,> 64 µg/mL
same,MIC,"B. cenocepacia; Burkholderia cenocepacia, strain BC15, read-out: MIC",> 64 µg/mL
same,MIC,B. cenocepacia; strain AU197,>64 µg/mL
same,MIC,S. maltophilia,64 µg/mL
same,MIC,Achromobacter spp.,> 64 µg/mL
same,Expected MIC: goal (acceptable range),S. aureus ATCC 29213,2 µg/mL
same,MICB,P. aeruginosa; [5],128 µg/mL
same,MICB,P. aeruginosa; [7],4 µg/mL
same,MIC,"P. aeruginosa; Pseudomonas aeruginosa, P. aeruginosa 6977, Amikacin alone (checkerboard with BisEDT), read-out: Drug B MIC",16 µg/mL
